Read-outs that look alike come from different tables or passages of the source.
Legend:
[1] = rat, in vivo, 1440 min; cited from earlier work
estrogen receptors = target: T1, estrogen receptors (Homo sapiens, UniProt P03372); assay: Inhibition of the fixation of tritiated estradiol on cytosols of MCF7 mammary human tumor; type: binding; conditions: 25° C, MCF7 cytosol
T1 construct: cytosols of MCF7 mammary human tumor rich in estrogen receptors; endogenous in cells; host or cells: MCF7 human mammary tumor, cytosol
T1 sequence (P03372 1-595): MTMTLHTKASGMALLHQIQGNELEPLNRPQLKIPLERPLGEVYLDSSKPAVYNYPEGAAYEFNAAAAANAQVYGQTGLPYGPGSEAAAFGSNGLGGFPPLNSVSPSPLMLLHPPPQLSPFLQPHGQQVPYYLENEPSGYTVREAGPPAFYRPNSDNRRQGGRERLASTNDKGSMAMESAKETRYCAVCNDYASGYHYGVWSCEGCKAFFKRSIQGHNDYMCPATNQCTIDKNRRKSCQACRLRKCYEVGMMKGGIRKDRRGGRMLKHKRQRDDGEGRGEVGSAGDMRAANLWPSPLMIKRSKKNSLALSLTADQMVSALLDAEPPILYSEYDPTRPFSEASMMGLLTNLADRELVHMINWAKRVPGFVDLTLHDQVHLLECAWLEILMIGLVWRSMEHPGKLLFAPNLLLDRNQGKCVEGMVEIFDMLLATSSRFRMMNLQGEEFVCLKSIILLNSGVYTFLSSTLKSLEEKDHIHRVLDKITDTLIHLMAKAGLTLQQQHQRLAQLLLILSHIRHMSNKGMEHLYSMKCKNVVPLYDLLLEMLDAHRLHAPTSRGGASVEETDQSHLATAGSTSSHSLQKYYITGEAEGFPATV

[2] = system: MXT syngenetic mammary tumors; assay: Targeted radiotherapy of female BDF1 mice grafted with MXT syngenetic mammary tumors; type: in vivo
Description: (§1) Twenty nine female BDF1 mice were grafted with MXT syngenetic mammary tumors implanted subcutaneously. Fourteen mice received three intravenous injections of 100 μCi of 11beta-chloromethyl-17-iodovinyl- ^123 I of E isomerism at fortnightly intervals.
(§2) The 100 μCi of labeled hormone were injected diluted in 200 μl of solution containing 9 g/l NaCl, 5% ethanol and 1% of Tween 80. The fifteen control mice received 200 μl of the NaCl/ethanol/Tween solution on the same dates.

[3] = Acute toxicity in mice grafted with MXT mammary tumors; type: in vivo, female BDF1 mice; conditions: three i.v. injections of 100 μCi at fortnightly intervals, period of 60 days
Description: as §1, §2

[4] = Hydrophobicity index based on retention time in reverse phase HPLC; type: physicochemical; set-up: retention time (hydrophobicity index): dose or concentration left out as unconfirmed; conditions: for retention time (hydrophobicity index): HPLC reverse phase, microBondapack C18, 1 ml/min of ethanol in H2O
estrogen receptor = target: T2, estrogen receptor (Bos taurus, UniProt P49884); assay: Tests of binding of calf uterus cytosol to the estrogen receptor
T2 sequence (P49884 1-596): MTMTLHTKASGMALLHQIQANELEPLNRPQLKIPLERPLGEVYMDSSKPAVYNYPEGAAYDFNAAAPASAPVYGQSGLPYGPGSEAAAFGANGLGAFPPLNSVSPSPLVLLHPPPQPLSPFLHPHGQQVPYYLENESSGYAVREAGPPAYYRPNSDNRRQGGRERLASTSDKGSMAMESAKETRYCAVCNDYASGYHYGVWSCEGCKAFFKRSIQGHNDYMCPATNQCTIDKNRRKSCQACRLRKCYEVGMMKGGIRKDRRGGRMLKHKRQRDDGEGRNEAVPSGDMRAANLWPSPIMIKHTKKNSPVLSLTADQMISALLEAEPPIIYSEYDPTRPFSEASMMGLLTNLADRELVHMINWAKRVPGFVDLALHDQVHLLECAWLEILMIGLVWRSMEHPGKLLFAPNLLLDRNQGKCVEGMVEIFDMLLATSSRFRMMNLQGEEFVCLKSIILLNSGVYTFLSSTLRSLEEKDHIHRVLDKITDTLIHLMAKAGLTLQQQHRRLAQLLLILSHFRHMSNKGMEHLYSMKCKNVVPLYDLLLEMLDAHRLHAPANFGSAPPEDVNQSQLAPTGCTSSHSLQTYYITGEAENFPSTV
Text: The nonspecific binding to the transport proteins is diminished by virtue of the presence of the 11-beta and 17-alpha groups.

[5] = Stability of the radioiodinated product in column eluate (60% ethanol) at -20° C; type: physicochemical
Description: The method is the same as for the labelling of (14').
The starting material is the derivative (15').
The HPLC separation conditions are different: the mobile phase is 60% ethanol in water, the flow rate is 1 ml/min, the final product is collected at 12 minutes. The labeled product is kept as such in the column eluate (60% ethanol). In these conditions, it is stable for at least 12 days at -20° C. (deiodination less than 2%).

[6] = Biodistribution of 125I-labeled Z isomer (16') in ovarectomized BDF1 mice; type: in vivo; conditions: for tissue uptake at 2 h / tissue uptake at 24 h: mouse, 1 uCi, 1 μCi 125I, ± S.D.
Description: The biodistribution of the Z isomer (16') in ovarectomized BDF mice is highly favorable.
8 ovarectomized BDF1 mice were injected with 1 μCi of 11beta-chloromethyl-17alpha-(2-iodovinyl)estradiol-(^125 I). 4 mice were sacrificed 2 hours after the estradiolinjection and 4 24 hours after the injection.

[7] = blood, read-out: % injected dose/g of tissue, blood
[8] = fat, read-out: % injected dose/g of tissue, fat
[9] = kidneys, read-out: % injected dose/g of tissue, kidneys
[10] = liver, read-out: % injected dose/g of tissue, liver
[11] = muscle, read-out: % injected dose/g of tissue, muscle
[12] = spleen, read-out: % injected dose/g of tissue, spleen
[13] = uterus, read-out: % injected dose/g of tissue, uterus

SMILES: CCC1C[C@@]2(C)[C@@H](CCC2(O)C=C[125I])[C@@H]2CCc3cc(O)ccc3[C@@H]12 (stereo partly shown) [I-125 17-iodovinyl-11-ethylestradiol, 17-iodovinyl-11-ethylestradiol]
- uterus/blood ratio [1]: 40.4
- uterus/liver ratio [1]: 3.89
- uterus/lung ratio [1]: 52.8

SMILES: C[C@]12C[C@H](CCl)[C@@H]3c4ccc(O)cc4CC[C@H]3[C@@H]1CC[C@@]2(O)C=CI [11beta-chloromethyl-17-iodovinylestradiol]
- affinity (in words) (estrogen receptors): an affinity comparable with that of 11beta-chloromethylestradiol and clearly superior to that of estradiol
- relative binding affinity (estrogen receptors; versus estradiol): greater than 1,000

SMILES: C[C@]12C[C@H](CCl)[C@@H]3c4ccc(O)cc4CC[C@H]3[C@@H]1CC[C@@]2(O)/C=C/[123I] [11beta-chloromethyl-17-iodovinyl- ^123 I of E isomerism, 11Beta-Chloromethyl-17-Iodovinylestradiol-^123 I]
- tumor growth compared with the control group, % of the average tumor growth ([2]; day 18, three i.v. injections of 100 μCi at fortnightly intervals): lower than 45%
- tumor growth compared with the control group (in words) ([2]; three i.v. injections of 100 μCi at fortnightly intervals): significant slowing down of the tumor growth
- survival ([2]; versus control group): better survival
- acute toxicity [3]: No acute toxicity was detected

SMILES: C[C@]12C[C@H](CCl)[C@@H]3c4ccc(O)cc4CC[C@H]3[C@@H]1CC[C@@]2(O)/C=C\I [16', (Z)-11beta-chloromethyl-3,17beta-dihydroxy17alpha-(2-iodovinyl)-1,3,5(10)-estratriene]
- retention time (hydrophobicity index) [4]: 12.1 min
- hydrophobicity, Z isomer versus E isomer (in words) ([4]; comparison of Z with E isomer): less hydrophobic than the E isomer
- binding to the estrogen receptor (in words) (estrogen receptor; 25° C, 1 h, final 5 mM, versus tritiated estradiol): binding of the same order as the tritiated estradiol
- nonspecific binding (estrogen receptor; 25° C, 1 h, saturating dose (final 5 mM), calf uterus cytosol): 23%
- nonspecific binding to the transport proteins (in words) (estrogen receptor; versus tritiated estradiol): diminished
- sensitivity level (in words) (estrogen receptor; versus tritiated estradiol, by virtue of the higher specific activity): higher sensitivity level
- degraded at 288 h ([5]; 60% ethanol): < 2%
- stable for at least (storage stability of labeled product) ([5]; column eluate (60% ethanol), -20° C): at least 12 days
- uterus/blood concentration ratio ([6]; 2 h): 6.16
- uterus/fat concentration ratio ([6]; 2 h): 2.90
- uterus/liver concentration ratio ([6]; 2 h): 1.30
- uterus/muscle concentration ratio ([6]; 2 h): 7.48
- uterus/blood concentration ratio ([6]; 24 h): 65.80
- uterus/fat concentration ratio ([6]; 24 h): 35.42
- uterus/liver concentration ratio ([6]; 24 h): 10.12
- uterus/muscle concentration ratio ([6]; 24 h): 92.10
- tissue uptake at 2 h [6, 7]: 1.08 ± 0.24 %ID/g
- tissue uptake at 24 h [6, 7]: 0.14 ± 0.02 %ID/g
- tissue uptake at 2 h [6, 8]: 2.29 ± 0.25 %ID/g
- tissue uptake at 24 h [6, 8]: 0.26 ± 0.09 %ID/g
- tissue uptake at 2 h [6, 9]: 1.84 ± 0.27 %ID/g
- tissue uptake at 24 h [6, 9]: 0.2 ± 0.02 %ID/g
- tissue uptake at 2 h [6, 10]: 5.1 ± 0.72 %ID/g
- tissue uptake at 24 h [6, 10]: 0.91 ± 0.05 %ID/g
- tissue uptake at 2 h [6, 11]: 0.89 ± 0.07 %ID/g
- tissue uptake at 24 h [6, 11]: 0.1 %ID/g
- tissue uptake at 2 h [6, 12]: 0.97 ± 0.18 %ID/g
- tissue uptake at 24 h [6, 12]: 0.12 ± 0.01 %ID/g
- tissue uptake at 2 h [6, 13]: 6.66 ± 0.91 %ID/g
- tissue uptake at 24 h [6, 13]: 9.21 ± 1.44 %ID/g

SMILES: C[C@]12C[C@H](CCl)[C@@H]3c4ccc(O)cc4CC[C@H]3[C@@H]1CC[C@@]2(O)/C=C/I [14', (E)-11-chloromethyl-3,17β-dihydroxy-17α-(2iodovinyl)-1,3,5(10)-estratriene]
- retention time (hydrophobicity index) [4]: 14.3 min

Source: patent publication US5002753A, “Specific ligands for estrogen and progestagen steroid hormone receptors, application and intermediate synthesis products” (IRE-Celltarg S.A., priority 1988, dated 1991)
